Data from publication PMC11667234, “CD63 as novel target for nanoemulsion-based ^19F MRI imaging and drug delivery to activated cardiac fibroblasts” (Theranostics, 2025).
“Also recorded” adds a separate entry of the source.

Tests used:
human monocytes (THP1) = assay: Peptide binding by flow cytometry (6-FAM fluorescence); type: cell-based; settings: 30 min, 37°C, 6-FAM MFI, n = 3 replicates
Protocol: (§1) To study the in vitro binding of 6-FAM-conjugated peptides (see above) we used the following cells: mouse EpiSC and cardiac fibroblasts prepared as described above, normal human dermal fibroblasts (NHDF) from juvenile foreskin, and human monocytes (THP-1). In addition, we used primary human cardiac fibroblasts which were prepared by outgrowth culture technique from a heart sample of a patient with terminal heart failure undergoing orthotopic heart transplant surgery, kindly provided by the Cardiac Surgery Department of the University Hospital Düsseldorf, Düsseldorf, Germany. A tissue sample weighing about ~5 g was removed from the failing heart's apex and placed in cooled BIOPS buffer to be divided into tiny pieces for subsequent culture to allow cell outgrowth in a 6‑well plate with DMEM (low glucose), 20% FBS, and 1% penicillin-streptomycin. The medium was replaced every 2 days and biopsy pieces were discarded after 5 days. After 14 days, cells reached a confluence of about 80% and were then passed to T75 cell culture flasks.
(§2) The binding assay was performed as follows: Cells were detached with PBS-EDTA (5 mM) for 10 min at 37°C and centrifuged at 500 × g for 5 min. Afterwards, 5 µg of synthesized peptide (see above) was added to 800 µL (0.5 x 10^6 cells) of the cell suspension and incubated for 30 min at 37°C. To control the specific targeting of the EP9 peptide, scrambled and mutated peptides were used as negative controls. Subsequently, 200 µL of the cell suspension were washed in 2 mL MACS buffer (2 % FBS and 1 mM EDTA in PBS) and centrifuged at 500 × g for 5 min and the supernatant was discarded. One additional washing step was performed by resuspending the cell pellet in 200 µL of MACS buffer and centrifugation at 500 × g for 5 min. After discarding the supernatant, the cell pellet was resuspended in 200 µL of 4′6-diamidino-2-phenylindole dichlorhydrate (DAPI) (Merck, Darmstadt, Germany) (1 µg/mL) to allow discrimination of dead cells. Flow cytometric analysis was performed using a BD FACS Canto II flow cytometer (BD Biosciences, Franklin Lakes, NJ, USA).

[1] = test system: primary human cardiac fibroblasts; assay: as above; type: cell-based; settings: outgrowth culture, patient with terminal heart failure, 30 min, 37°C, 6-FAM MFI, n = 2 replicates
Protocol: as §1, §2

mouse EpiSC = assay: as above; type: cell-based; settings: EpiSC from hearts 5 days after MI, 5 µg peptide, 30 min, 37°C, 6-FAM MFI, n = 3 hearts
Protocol: as §1, §2

[2] = test system: rat epicardial stromal cells (EpiSC); settings: cultured EpiSC from infarcted rat hearts; cited from earlier work
Description: Using bacterial phage display screening, our previous work identified five small peptides that bound to cultured EpiSC, isolated from infarcted rat hearts, with high affinity. […] In the present study, we first aimed to assess the potential of EP9 for in vivo imaging of epicardial and myocardial stromal cells (fibroblasts) in the post-MI mouse heart. To this end, we coupled EP9 to a ^19F-containing PFC-NE (EP9-PFC-NE), designed for the in vivo labeling of cardiac cells (Figure 1). At 5 days post-MI (50 min ischemia/reperfusion), 150 µL of EP9-PFC-NE were injected into the tail vein of infarcted mice. PFC-NE coupl ... || page 3: Figure S2. Binding of peptide EP9 in comparison to control peptides to mouse cardiac fibroblasts and human monocytes (THP1). The binding of peptide EP9 in comparison to EP9-derived scrambled and mutated (MUT) peptides (see Table S1), as well as a negative control peptide (Negative) with low affinity to cardiac stromal cells (as previously assessed: peptide EP50), was evaluated by flow cytometry after 30 min of incubation in vitro. 6-FAM fluorescence signal of the peptides at the surface of mouse cardiac fibroblasts isolated from hearts 5 days after MI (n = 3 hearts) and human mono ...

Ac-KLMLPRPGGGKC-NH2 [EP9, 7-amino acid peptide KLMLPRP with glycine spacer GGGK(FAM)C, from phage display on rat EpiSC]
binding to human monocytes (THP1) (human monocytes (THP1)): no discernible binding; also recorded: only negligible binding
binding to primary human cardiac fibroblasts [1]: high binding
binding to cultured mouse EpiSC (mouse EpiSC): superior binding
binding affinity to rat EpiSC [2]: high binding affinity; also recorded: highest affinity and specificity
